Measurements taken from US7432283B2, “Heterocyclic GABAA subtype selective receptor modulators” (Roche Palo Alto LLC, priority 2004, dated 2008).
Where a name gives a salt, the structure may show the parent alone.

| SMILES | melting point |
| --- | --- |
| Cc1cc(C)c(N2CCCc3c2nn(C)c3CN2CCc3ccccc3C2)c(C)c1 (as salt: hydrochloride) [Compound 7-5, 2-[2-Methyl-7-(2,4,6-trimethyl-phenyl)-4,5,6,7-tetrahydro-2H-pyrazolo[3,4-b]pyridin-3-ylmethyl]-1,2,3,4-tetetrahydroisoquinolinedihydrochloride] | 236.4 to 241 °C |
| Cc1cc(C)c(N2CCCc3c2nn(C)c3Br)c(Cl)c1 [Compound 1-1, 3-Bromo-7-(2-chloro-4,6-dimethylphenyl)-2-methyl-4,5,6,7-tetrahydro-2H-pyrazolo[3,4-b]pyridine] | 106 to 107 °C |
| Cn1nc2c(c1Br)CCCN2c1c(Cl)cc(Cl)cc1Cl [Compound 1-6, 3-Bromo-2-methyl-7-(2,4,6-trichloro-phenyl)-4,5,6,7-tetrahydro-2H-pyrazolo[3,4-b]pyridine] | 100 to 101 °C |
| COc1ccc(N2CCCc3c2nn(C)c3Br)c(C)c1 [Compound 1-7, 3-Bromo-2-methyl-7-(4-methoxy 2-methyl-phenyl)-4,5,6,7-tetrahydro-2H-pyrazolo[3,4-b]pyridine] | 101.7 to 104.1 °C |
| Cn1nc2c(c1Br)CCCN2c1ccc(Cl)cc1 [Compound 1-8, 3-Bromo-2-methyl-7-(4-chloro-phenyl)-4,5,6,7-tetrahydro-2H-pyrazolo[3,4-b]pyridine] | 113.8 to 114.9 °C |
| Cn1nc2c(c1Cl)CCCN2c1ccc(Cl)cc1 [Compound 1-10, 3-chloro-7-(4-chloro-phenyl)-2-methyl-4,5,6,7-tetrahydro-2H-pyrazolo [3,4-b]pyridine] | 96.5 to 97.5 °C |
| Cc1cc(C)c(N2CCCc3c2[nH]n(C)c3=O)c(Cl)c1 [Compound 1-15, 7-(2-Chloro-4,6-dimethyl-phenyl)-2-methyl-1,2,4,5,6,7-hexahydro-pyrazolo[3,4-b]pyridin-3-one] | 103 to 109 °C |
| Cn1[nH]c2c(c1=O)CCCN2c1ccc(Cl)cc1Cl [Compound 1-16, 7-(2,4-dichloro-phenyl)-2-methyl-1,2,4,5,6,7-hexahydro-pyrazolo[3,4-b]pyridin-3-one] | 98 to 100.5 °C |
| Cn1[nH]c2c(c1=O)CCCN2c1ccc(Cl)cc1 [Compound 1-17, 7-(4-chloro-phenyl)-2-methyl-1,2,4,5,6,7-hexahydro-pyrazolo[3,4-b]pyridin-3-one] | 219.5 to 221.6 °C |
| CCCC(O)(CCC)c1c2c(nn1C)N(c1c(C)cc(C)cc1Cl)CCC2 [Compound 2-1, 4-[7-(2-Chloro-4,6-dimethylphenyl)-2-methyl-4,5,6,7-tetrahydro-2H-pyrazolo[3,4-b]pyridin-3-yl]heptan-4-ol] | 129 to 130 °C |
| CCCC(O)(CCC)c1c2c(nn1C)N(c1c(C)cc(C)cc1C)CCC2 [Compound 2-2, 4-[2-Methyl-7-(2,4,6-trimethylphenyl)-4,5,6,7-tetrahydro-2H-pyrazolo[3,4-b]pyridin-3-yl] heptan-4-ol] | 126 to 127.9 °C |
| CCCC(O)(c1cccs1)c1c2c(nn1C)N(c1c(C)cc(C)cc1C)CCC2 (stereo not shown) [Compound 2-3, 1-[2-Methyl-7-(2,4,6-trimethylphenyl)-4,5,6,7-tetrahydro-2H-pyrazolo[3,4-b]pyridin-3-yl]-1-thiophen-2-ylbutan-1-ol] | 175.9 to 178.4 °C |
| CCCC(O)(CCC)c1c2c(nn1C)N(c1c(C)cc(C)cc1C)CCCC2 [Compound 2-4, 4-[2-Methyl-8-(2,4,6-trimethylphenyl)-2,4,5,6,7,8-hexahydro-1,2,8-triazaazulen-3-yl]heptan-4-ol] | 87 to 91.1 °C |
| CCCC(O)(CCC)c1c2c(nn1C)N(c1ccc(Cl)cc1Cl)CCC2 [Compound 2-5, 4-[7-(2,4-Dichlorophenyl)-2-methyl-4,5,6,7-tetrahydro-2H-pyrazolo [3,4-b]pyridin-3-yl]heptan-4-ol] | 121.4 to 122.6 °C |
| COCC(O)(COC)c1c2c(nn1C)N(c1c(C)cc(C)cc1C)CCC2 [Compound 2-6, 1,3-Dimethoxy-2-[2-methyl-7-(2,4,6-trimethylphenyl)-4,5,6,7-tetrahydro-2H-pyrazolo[3,4-b]pyridin-3-yl]propan-2-ol] | 120.3 to 121.8 °C |
| COCCC(O)(COC)c1c2c(nn1C)N(c1c(C)cc(C)cc1C)CCC2 (stereo not shown) [Compound 2-7, 1,4-Dimethoxy-2-[2-methyl-7-(2,4,6-trimethylphenyl)-4,5,6,7-tetrahydro-2H-pyrazolo[3,4-b]pyridin-3-yl]butan-2-ol] | 107.9 to 110.9 °C |
| CCCC(O)(c1nccs1)c1c2c(nn1C)N(c1c(C)cc(C)cc1C)CCC2 (stereo not shown) [Compound 2-8, 1-[2-Methyl-7-(2,4,6-trimethylphenyl)-4,5,6,7-tetrahydro-2H-pyrazolo[3,4-b]pyridin-3-yl]-1-thiazol-2-ylbutan-1-ol] | 160.1 to 165.6 °C |
| CCCC(O)(c1nccn1CC)c1c2c(nn1C)N(c1c(C)cc(C)cc1C)CCC2 (stereo not shown) [Compound 2-11, 1-(1-Ethyl-1H-imidazol-2-yl)-1-[2-methyl-7-(2,4,6-trimethylphenyl)-4,5,6,7-tetrahydro-2H-pyrazolo[3,4-b]pyridin-3-yl]butan-1-ol] | 94.9 to 100.9 °C |
| Cc1cc(C)c(N2CCCc3c2nn(C)c3C2(O)CCOCC2)c(C)c1 [Compound 2-12, 4-[2-Methyl-7-(2,4,6-trimethylphenyl)-4,5,6,7-tetrahydro-2H-pyrazolo[3,4-b]pyridin-3-yl]tetrahydropyran-4-ol] | 193 to 195.1 °C |
| Cc1cc(C)c(N2CCCc3cn(C)nc32)c(Cl)c1 [Compound 2-13, 7-(2-Chloro-4,6-dimethylphenyl)-2-methyl-4,5,6,7-tetrahydro-2H-pyrazolo[3,4-b]pyridine] | 97 to 98 °C |
| CC(O)c1c2c(nn1C)N(c1ccc(Cl)cc1Cl)CCC2 (stereo not shown) [Compound 2-14, 1-[7-(2,4-Dichloro-phenyl)-2-methyl-4,5,6,7-tetrahydro-2H-pyrazolo[3,4-b]pyridin-3-yl]-ethanol] | 56.7 to 64 °C |
| CC/C=C(\CCC)c1c2c(nn1C)N(c1c(C)cc(C)cc1Cl)CCC2 [Compound 3-1, 7-(2-Chloro-4,6-dimethylphenyl)-2-methyl-3-(1-propylbut-1-enyl)-4,5,6,7-tetrahydro-2H-pyrazolo[3,4-b]pyridine] | 86.7 to 88.2 °C |
| CC/C=C(\CCC)c1c2c(nn1C)N(c1c(C)cc(C)cc1C)CCCC2 [Compound 3-4, 2-Methyl-3-(1-propylbut-1-enyl)-8-(2,4,6-trimethylphenyl)-2,4,5,6,7,8-hexahydro-1,2,8-triazaazulene] | 101.9 to 103.9 °C |
| C=Cc1c2c(nn1C)N(c1ccc(Cl)cc1Cl)CCC2 [Compound 3-7, 7-(2,4-Dichloro-phenyl)-2-methyl-3-vinyl-4,5,6,7-tetrahydro-2H-pyrazolo[3,4-b]pyridine] | 99.6 to 100.6 °C |
| CCCC(CCC)c1c2c(nn1C)N(c1c(C)cc(C)cc1C)CCC2 [Compound 4-2, 2-Methyl-3-(1-propylbutyl)-7-(2,4,6-trimethylphenyl)-4,5,6,7-tetrahydro-2H-pyrazolo[3,4-b]pyridine] | 91.5 to 92 °C |

Second part, the compound after the results:

| melting point | SMILES |
| --- | --- |
| 94.6 to 97.9 °C | Cc1cc(C)c(N2CCCc3c2nn(C)c3Br)c(C)c1 [Compound 1-3, 3-Bromo-2-methyl-7-(2,4,6-trimethyl-phenyl)-4,5,6,7-tetrahydro-2H-pyrazolo[3,4-b]pyridine] |
| 83 to 86 °C | Cc1cc(C)c(N2CCCc3c2nn(C)c3Cl)c(C)c1 [Compound 1-11, 3-chloro-7-(2,4,6-trimethyl-phenyl)-2-methyl-4,5,6,7-tetrahydro-2H-pyrazolo[3,4-b]pyridine] |
| 163.1 to 174.4 °C | Cc1cc(C)c(N2CCCc3c2nn(C)c3C(O)c2ccco2)c(C)c1 (stereo not shown) [Compound 2-9, Furan-2-yl[2-methyl-7-(2,4,6-trimethyl-phenyl)-4,5,6,7-tetrahydro-2H-pyrazolo[3,4-b]pyridin-3-yl]methanol] |
| 179.4 to 180.9 °C | CCC(O)c1c2c(nn1C)N(c1c(C)cc(C)cc1C)CCC2 (stereo not shown) [Compound 2-10, 1-[2-Methyl-7-(2,4,6-trimethylphenyl)-4,5,6,7-tetrahydro-2H-pyrazolo[3,4-b]pyridin-3-yl]propan-1-ol] |
| 178 to 179.6 °C | Cc1cc(C)c(N2CCCc3c2nn(C)c3C(C)O)c(C)c1 (stereo not shown) [Compound 2-15, 1-[7-(2,4,6-trimethyl-phenyl)-2-methyl-4,5,6,7-tetrahydro-2H-pyrazolo[3,4-b]pyridin-3-yl]-ethanol] |
| 158.9 to 161.6 °C | Cc1cc(C)c(N2CCCc3c2nn(C)c3C(C)(C)O)c(C)c1 [Compound 2-16, 2-[7-(2,4,6-trimethyl-phenyl)-2-methyl-4,5,6,7-tetrahydro-2H-pyrazolo[3,4-b]pyridin-3-yl]-propan-2-ol] |
| 90.3 to 91.7 °C | CSc1c2c(nn1C)N(c1c(C)cc(C)cc1C)CCC2 [Compound 2-20, 2-Methyl-3-methylsulfanyl-7-(2,4,6-trimethyl-phenyl)-4,5,6,7-tetrahydro-2H-pyrazolo[3,4-b]pyridine] |
| 181.6 to 183 °C | Cc1cc(C)c(N2CCCc3c2nn(C)c3S(C)(=O)=O)c(C)c1 [Compound 2-21, 3-Methanesulfonyl-2-methyl-7-(2,4,6-trimethyl-phenyl)-4,5,6,7-tetrahydro-2H-pyrazolo[3,4-b]pyridine] |
| 128.5 to 136.6 °C | Cc1cc(C)c(N2CCCc3c2nn(C)c3C#N)c(C)c1 [Compound 2-22, 2-Methyl-7-(2,4,6-trimethyl-phenyl)-4,5,6,7-tetrahydro-2H-pyrazolo[3,4-b] pyridine-3-carbonitrile] |
| 120.5 to 123.5 °C | Cc1cc(C)c(N2CCCc3c2nn(C)c3C=O)c(C)c1 [Compound 2-24, 2-Methyl-7-(2,4,6-trimethyl-phenyl)-4,5,6,7-tetrahydro-2H-pyrazolo[3,4-b] pyridine-3-carbaldehyde] |
| 101.6 to 102.6 °C | CC/C=C(\CCC)c1c2c(nn1C)N(c1c(C)cc(C)cc1C)CCC2 [Compound 3-2, 2-Methyl-3-(1-propylbut-1-enyl)-7-(2,4,6-trimethylphenyl)-4,5,6,7-tetrahydro-2H-pyrazolo[3,4-b]pyridine] |
| 64.4 to 67.6 °C | C=Cc1c2c(nn1C)N(c1c(C)cc(C)cc1C)CCC2 [Compound 3-8, 2-methyl-7-(2,4,6-trimethyl-phenyl)-3-vinyl-4,5,6,7-tetrahydro-2H-pyrazolo[3,4-b]pyridine] |
